What was measured:
11-month Fischer rats = assay: Exploratory habituation in novel field, Fischer rats; format: in vivo, rat; conditions: 27 mg/kg daily, vs vehicle-treated rats
Experimental: FIG. 2. The cathepsin B modulatory compound PADK improved learning and memory in 11-month Fischer rats, a model of mild cognitive impairment (MCI) and early dementia. A classic passive avoidance task to assess memory utilized a bi-sectioned apparatus consisting of a brightly-lit compartment and a dark compartment separated by a small door. […] In this figure, the female rats were injected daily with vehicle or 27 mg/kg PADK. Following each morning's injection, the rats were placed individually into the bright compartment and, after 10 s, the door was opened through which the rats typically entered immediately (3 min total time in apparatus/rat/day). Panel A: On the seventh injection day, latency time before entering the opened doorway was measured (pre-shock bars, mean±SEM), after which the door was closed to contain the animal in the dark compartment. A mild foot shock of 0.6 mA, 2 s duration, was then administered to the contained rat via the floor grid. Following the next day's injections, rats were again placed in the bright compartment and latency times measured after the door was opened (post-shock bars). […] Brains were removed after the behavior studies in order to assess cathepsin B levels.
The animal groups were also tested across two days in the same novel field, and the number of grid crossings per 3-min period was measured to determine exploratory habituation.

active cathepsin B = target: T1, active cathepsin B (Homo sapiens, UniProt P07858); assay: Active cathepsin B staining in human neuronal cultures; format: cell-based; conditions: 10 μM for 3 days, vs control compound Z-FA
T1 construct: endogenous in cells

cathepsin B [1] = target: T2, cathepsin B (Mus musculus, UniProt P10605); assay: Cathepsin B / LAMP1 immunostaining of hippocampal tissue from PADK-treated mice; format: in vivo; parameters: from tissue; host or cells: mouse hippocampus (A1); conditions: i.p., 20 mg/kg/day×9 days
T2 sequence (P10605 80-333): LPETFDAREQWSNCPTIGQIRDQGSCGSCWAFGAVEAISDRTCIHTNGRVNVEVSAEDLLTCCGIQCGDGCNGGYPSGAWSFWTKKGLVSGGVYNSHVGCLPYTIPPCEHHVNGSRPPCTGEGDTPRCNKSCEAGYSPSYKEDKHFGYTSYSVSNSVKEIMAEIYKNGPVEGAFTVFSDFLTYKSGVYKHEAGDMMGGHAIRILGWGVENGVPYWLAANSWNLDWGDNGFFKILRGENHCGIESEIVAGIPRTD
Excerpt: FIG. 1. Lysosomal modulation increases the cathepsin B content of lysosomes and reduces intracellular Δβ1-42 in the APPswe/PS1ΔE9 transgenic mouse model of Alzheimer's disease. […] Without wishing to be bound by any scientific theory, the latter steps may involve processing/trafficking of active intermediate (intCB) and mature forms (matCB) from early/late endosomes to lysosomes in order to promote protein degradation (A). […] The increase in organellar cathepsin B enzyme (red) in PADK-treated APPswe/PS1ΔE9 transgenic mice (tg) was associated with a decrease in intracellular Δβ1-42 in the CA1 pyramidal neurons (C). Arrows denote co-localization in lysosomes, capturing intact Δβ1-42 before being degraded by cathepsin B. View-field widths: 12 μm. wt, vehicle-treated wild-type mice.
The lysosomal modulator Z-Phe-Ala-diazomethylketone (PADK) is administered to APPswe/PS1ΔE9 transgenic mice. Low-level PADK enhances cathepsin trafficking and maturation, thereby improving the clearance capacity of lysosomes (FIG. 1). It attenuates both PHF-tau and synaptic decline in the hippocampal slice model of protein accumulation (Bendiske and Bahr, 2003; Butler et al., 2005; Bahr, 2009). […] In PADK-treated transgenic mice, the increase in organellar cathepsin B was associated with a decrease in intracellular Aβ1-42 in pyramidal neurons (FIG. 1C).

Aβ1-42 peptide = conditions: cited from earlier work
[2] = test system: human A53T α-synuclein transgenic mice; assay: Open field test in A53T α-synuclein transgenic mice; format: in vivo, mouse; conditions: A53T mice 7-8 months; 18 mg/kg/day for 11 days
Experimental: FIG. 5. The cathepsin B modulator PADK also has a behavioral effect during early α-synucleinopathy. Vehicle-treated and PADK in the model of early α-synucleinopathy, human A53T α-synuclein transgenic mice, 7-8 months old, were injected with vehicle or PADK (18 mg/kg/day) for 11 days and their locomotor activity was measured in the open field test (OFT) for two days, center and perimeter crossings were measured. No difference in center crossings was found on day 1 as compared to wild-type mice (left graph), thus an indication of pre-symptomatic early stage Parkinson's disease (PD) before typical locomotor deficits. However, center crossings are often used as a measure of altered anxiety in PD mice. […] The altered anxiety in the vehicle-treated A53T mice appears to be a selective effect since perimeter crossings on day 2 were unchanged (right graph).

cathepsin B [3] = target: T2, cathepsin B; assay: Cathepsin B species immunoblot in heart tissue of A53T mice; format: in vivo; parameters: heart tissue was obtained to test for changes in cathepsin B; from tissue; host or cells: mouse heart, wild-type and A53T transgenic (A16); conditions: A53T mice; i.p., 18 mg/kg/day
Experimental: FIG. 8. PADK also enhances cathepsin B species in the heart. The A53T early α-synucleinopathy mouse model was injected daily with vehicle or PADK (i.p., 18 mg/kg/day) to test for changes in heart tissue. […] Positions of molecular weight standards (kDa) are shown on the left side of the immunoblot. (B) In the lower graph, ratios between CB-30 and CB-105 (mean±SEM) provide a good example of the unique PADK effect on cathepsin B species in the heart. **P<0.01 as compared to vehicle-treated A53T mice.
Ratio measures between the 30-kDa form and the 105-kDa species indicate a unique PADK effect on cathepsin B species in the heart (FIG. 8 bar graph).

C[C@H](NC(=O)[C@H](Cc1ccccc1)NC(=O)OCc1ccccc1)C(=O)C=[N+]=[N-] [PADK, N-carbobenzyloxy-L-phenylalanyl-L-alanyl-diazomethylketone]
grid crossings per 3-min period, day 1 (11-month Fischer rats): No significant difference
exploratory habituation, second day (11-month Fischer rats; P<0.05): improved habituation
levels of active cathepsin B (active cathepsin B): increased levels of active cathepsin B
levels of cathepsin B in hippocampal neurons, co-localized with LAMP1-positive lysosomes (cathepsin B [1]): enhanced levels of cathepsin B
extracellular Aβ deposits (Aβ1-42 peptide; AD mouse models): significantly reduced
truncated Aβ38 (Aβ1-42 peptide; AD transgenic mice): increase
synaptic integrity and cognitive ability (Aβ1-42 peptide; AD transgenic mouse models): improved
intracellular Aβ1-42 peptide in the hippocampus and other brain regions (Aβ1-42 peptide; two different transgenic mouse models of AD): reduced
active form of cathepsin B (Aβ1-42 peptide; two mouse models of AD): markedly up-regulated
center crossings on day 2 (altered anxiety) [2]: did not consistently exhibit such a positive trend
active form of cathepsin B (CB-30) in heart (cathepsin B [3]): robust PADK-mediated increase

— patent publication US20160136229A1, “MATERIALS FOR POSITIVE CATHEPSIN B MODULATION AND METHODS OF USE FOR TREATING MILD COGNITIVE IMPAIRMENT (MCI), EARLY DEMENTIA, A-SYNUCLEINOPATHY, TRAUMATIC BRAIN INJURY, CARDIOMYOPATHY, EYE DISEASE AND SKIN DAMAGE” (University of North Carolina at Pembroke, priority 2013, published 2016)
